Biological target: T1, Acid ceramidase (Homo sapiens, UniProt Q13510)
T1 sequence (Q13510 whole entry): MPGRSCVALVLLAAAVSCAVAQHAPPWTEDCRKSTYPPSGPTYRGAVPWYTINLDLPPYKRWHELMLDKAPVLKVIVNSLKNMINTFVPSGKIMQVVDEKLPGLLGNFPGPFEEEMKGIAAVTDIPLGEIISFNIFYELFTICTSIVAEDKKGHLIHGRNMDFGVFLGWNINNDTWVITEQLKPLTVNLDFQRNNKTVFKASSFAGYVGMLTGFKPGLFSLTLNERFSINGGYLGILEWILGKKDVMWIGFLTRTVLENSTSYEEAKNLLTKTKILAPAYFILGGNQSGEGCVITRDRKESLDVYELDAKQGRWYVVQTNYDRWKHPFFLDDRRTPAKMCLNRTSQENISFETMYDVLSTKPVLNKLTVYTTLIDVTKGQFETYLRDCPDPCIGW
Test: Non-competitive inhibition of human acid ceramidase

Ki: 64 nM
SMILES: O=C(NCCCCc1ccccc1)n1c(=O)oc2ccccc21

Source: ChEMBL document CHEMBL4371042, “Molecular Mechanism of Inhibition of Acid Ceramidase by Carmofur” (J Med Chem, 2019)
